According to patent publication US7777060B2, “Platinum analogs with bis-nitrile-containing ligands” (BioNumerik Pharmaceuticals, Inc., priority 2007, dated 2010):

Assays:
Assay type in all cases: cell-based
A2780/WT = assay: Cytotoxicity IC50 in A2780/WT cell line, 1 hour drug exposure; settings: 1 hour of exposure to the drug; average of repeat experiments
Protocol: (§1) All experiments are with 1 hour of exposure to the drug, IC50 in μM. The platinum compounds have been tested by the resistance factor in CP3 cell line (CP3 Rfact) and C25 cell line (C25 Rfact). The terms (CP3 Rfact) and (C25 Rfact) are determined utilizing the following equations, wherein WT stands for wild-type. CP3 Rfact=IC50 in A2780/CP3÷IC50 in A2780/WT C25 Rfact=IC50 in A2780/C25÷IC50 in A2780/WT
(§2) In addition, Compounds with “ - - - ” in the IC50 column indicate the IC50s are >100 μM.

A2780/CP3 = assay: Cytotoxicity IC50 in A2780/CP3 cell line, 1 hour drug exposure; settings: for IC50: 1 hour of exposure to the drug, average of repeat experiments, dash = IC50 >100 μM; for CP3 Rfact: resistance factor = IC50 in A2780/CP3 ÷ IC50 in A2780/WT
Protocol: as §1, §2

A2780/C25 = assay: Cytotoxicity IC50 in A2780/C25 cell line, 1 hour drug exposure; settings: for IC50: 1 hour of exposure to the drug, average of repeat experiments; for C25 Rfact: resistance factor = IC50 in A2780/C25 ÷ IC50 in A2780/WT
Protocol: as §1, §2

Compound | IC50 (A2780/WT) | IC50 (A2780/CP3) | CP3 Rfact (A2780/CP3) | IC50 (A2780/C25) | C25 Rfact (A2780/C25)
Cis-bis-[4-(trifluoromethoxy)-phenylacetonitrile]dichloroplatinum (II) [BNP3031] | 18.4 µM | 35.9 µM | 1.95 | 23.2 µM | 1.26
[Cl][Pt-2]([Cl])([N+]#CC1CCC1)[N+]#CC1CCC1 [BNP3021, Cis-bis-(cyclobutanecarbonitrile)dichloroplatinum (II)] | 13.9 µM | 41.3 µM | 2.97 | 29.2 µM | 2.10
N#CCCCc1ccccc1.N#CCCCc1ccccc1.[Cl][Pt@SP1][Cl] [BNP3029/t, Trans-bis-(4-phenylbutyronitrile)dichloroplatinum (II)] | 16.2 µM | 19.2 µM | 1.19 | 17.7 µM | 1.09
N#CCc1ccc2c(c1)OCO2.N#CCc1ccc2c(c1)OCO2.[Cl][Pt@SP1][Cl] [BNP3016, Cis-bis(3,4-(methylenedioxy)phenylacetonitrile)dichloroplatinum (II)] | 62.4 µM | 75.6 µM | 1.21 | 66.5 µM | 1.07
N#CC1Cc2ccccc21.N#CC1Cc2ccccc21.[Cl][Pt@SP1][Cl] (stereo not drawn) [BNP3030, Cis-bis(bicyclo[4.2.0]octa-1(6),2,4-triene-7-carbonitrile)dichloroplatinum (II)] | 51.4 µM | 61.9 µM | 1.20 | 58.9 µM | 1.15
N#CCCCc1ccccc1.N#CCCCc1ccccc1.[Cl][Pt@SP1][Cl] [BNP3029/c, Cis-bis-(4-phenylbutyronitrile)dichloroplatinum (II)] | 4.4 µM | 6.88 µM | 1.56 | 5.45 µM | 1.24
Cis-bis(cyclopropaneacetonitrile)dichloroplatinum (II) [BNP3014/c] | 23.3 µM | 55.7 µM | 2.39 | 45.4 µM | 1.94
COC(CCC#N)c1ccccc1.COC(CCC#N)c1ccccc1.[Cl][Pt@SP1][Cl] (stereo not drawn) [BNP3017, Cis-bis(4-methoxy-4-phenylbutyronitrile)dichloroplatinum (II)] | 14 µM | 18.8 µM | 1.34 | 18.1 µM | 1.29
Trans-bis(cyclopropaneacetonitrile)dichloroplatinum (II) [BNP3014/t] | 68.1 µM | > 100 µM | – | 92 µM | 1.35
Cc1cccc(CC#[N+][Pt-2]([Cl])([Cl])[N+]#CCc2cccc(C)c2)c1 [BNP3026, Cis-bis(m-tolylacetonitrile)dichloroplatinum (II)] | 21.6 µM | 28.5 µM | 1.32 | 24 µM | 1.11
Trans-bis(2,6-difluoro-3-methylphenylacetonitrile)dichloroplatinum (II) [BNP3036/t] | 23.7 µM | 54.1 µM | 2.28 | 35.2 µM | 1.49
N#CCc1ccccc1C(F)(F)F.N#CCc1ccccc1C(F)(F)F.[Cl][Pt@SP1][Cl] [BNP3037/t, Trans-bis-[2-(trifluoromethyl)-phenylacetonitrile]dichloroplatinum] | 87.1 µM | > 100 µM | – | 68.7 µM | 0.79
Cc1ccccc1CC#[N+][Pt-2]([Cl])([Cl])[N+]#CCc1ccccc1C [BNP3024, Cis-bis-(o-tolylacetonitrile)dichloroplatinum (II)] | 13.9 µM | 18.6 µM | 1.34 | 18.7 µM | 1.34
CCCCOCCC#N.CCCCOCCC#N.[Cl][Pt@SP1][Cl] [BNP3022, Cis-bis(3-butoxypropanenitrile)dichloroplatinum (II)] | 73.8 µM | > 100 µM | – | 65 µM | 0.88
N#CCCC1CCCCC1=O.N#CCCC1CCCCC1=O.[Cl][Pt@SP1][Cl] (stereo not drawn) [BNP3020, Cis-bis[3-(2-oxo-cyclohexyl)-propionitrile]dichloroplatinum (II)] | 51.6 µM | 84.3 µM | 1.63 | 61.6 µM | 1.19
